Results on seven molecules are retold here after paper PMC6259458, “Investigating the Spectrum of Biological Activity of Ring-Substituted Salicylanilides and Carbamoylphenylcarbamates” (Molecules, 2010).

Data set [1] has as its system human SK-N-MC neuroepithelioma cell line. Nature of the data set: In vitro anti-proliferative activity, MTT assay. Type of data set: cell-based. The conditions noted are these: SK-N-MC cells, 72 h. The procedure: Therefore, the anti-proliferative activity of compounds 1-5 was examined against the human SK-N-MC neuroepithelioma cell line to determine if there were any undesired cytotoxic side-effects. The SK-N-MC cell line was chosen as the effect of iron chelators on the proliferation of these cells has been extensively examined. The anti-proliferative activity of the evaluated compounds was assessed in comparison to the well-known clinically used iron chelator, desferrioxamine (DFO), and the highly cytotoxic chelator, di-2-pyridylketone 4,4-dimethyl-3-thiosemicarbazone (Dp44mT).
The human SK-N-MC neuroepithelioma cell type was obtained from the American Type Culture Collection (Manassas, VA, USA) and was cultured in minimum essential medium (MEM; Gibco, Melbourne, Australia) containing 10% (v/v) FBS, 1.0 mM sodium pyruvate (Gibco), 1% (v/v) non-essential amino acids (Gibco), 2 mM L-glutamine (Gibco), 100 U/mL penicillin (Gibco), streptomycin (Gibco) and 0.28 μg/mL fungizone (Squibb Pharmaceuticals, Montreal, Canada). […]
The effect of the compounds on cellular proliferation was determined by the MTT [1-(4,5-dimethylthiazol-2-yl)-2,5-diphenyl tetrazolium] assay using standard techniques. […] After solubilization of the cells with 100 μL of 10% SDS-50% isobutanol in 0.01 M HCl, the plates were read at 570 nm using a scanning multi-well spectrophotometer.

Data set [2] concerns photosynthetic electron transport (PET) in spinach chloroplasts. Nature of the data set: Inhibition of photosynthetic electron transport (PET) in spinach chloroplasts, DCPIP photoreduction. Type of data set: biochemical, Spinacia oleracea L. The conditions noted are these: DCPIP photoreduction, pH 7.2. How it is done:
Chloroplasts were prepared from spinach (Spinacia oleracea L.) according to Masarovicova and Kralova. The inhibition of photosynthetic electron transport (PET) in spinach chloroplasts was determined spectrophotometrically (Genesys 6, Thermo Scientific, USA), using an artificial electron acceptor 2,6-dichlorophenol-indophenol (DCIPP) according to Kralova et al., and the rate of photosynthetic electron transport was monitored as a photoreduction of DCPIP. The measurements were carried out in phosphate buffer (0.02 mol/L, pH 7.2) containing sucrose (0.4 mol/L), MgCl2 (0.005 mol/L) and NaCl (0.015 mol/L). The chlorophyll content was 30 mg/L in these experiments and the samples were irradiated (~100 W/m^2) from 10 cm distance with a halogen lamp (250 W) using a 4 cm water filter to prevent warming of the samples (suspension temperature 22 °C). The studied compounds were dissolved in DMSO due to their limited water solubility.

Data set [3] relates to photosynthetic apparatus of spinach chloroplasts (PS 2 / PS 1). Nature of the data set: Site of action: restoration of PET by artificial electron donors (DPC, DCPIPH2). Type of data set: biochemical, Spinacia oleracea L. The procedure: To further determine the site of action of the studied compounds, experiments with 1,5-diphenylcarbazide (DPC) were performed. DPC is an artificial electron donor for PS 2 with a known site of action in the Z^•/D^• intermediate. The site of action of the artificial electron acceptor 2,6-dichlorophenol-indophenol (DCPIP) used for monitoring the Hill reaction is plastoquinone on the acceptor side of PS 2 [51]. Thus, if the part of the photosynthetic electron transport chain between manganese cluster and Z/D is inhibited, then DPC will restore PET through PS 2.

A short description of data set [4]: Lipophilicity determination by RP-HPLC (capacity factor k / log k). Type of data set: physicochemical. The conditions noted are these: C18 column, MeOH 70% / H2O 30%, isocratic. The procedure: Hydrophobicities (log P/Clog P) of the compounds 1-5 and 8-14 were calculated using two commercially available programs (ChemDraw Ultra 10.0 and ACD/LogP) and also measured by means of the RP-HPLC determination of capacity factors k with subsequent calculation of log k. The procedure was performed under isocratic conditions with methanol as an organic modifier in the mobile phase using an end-capped non-polar C18 stationary RP column. The results are shown in Table 1 and illustrated in Figure 1.
A Waters Alliance 2695 XE HPLC separation module and a Waters Photodiode Array Detector 2996 (Waters Corp., Milford, MA, USA) were used. A Symmetry® C18 5 μm, 4.6 × 250 mm, Part No. WAT054275 (Waters Corp., Milford, MA, USA) chromatographic column was used. The HPLC separation process was monitored by Empower™ 2 Chromatography Data Software, Waters 2009 (Waters Corp., Milford, MA, USA). A mixture of MeOH p.a. (70%) and H2O-HPLC – Mili-Q Grade (30%) was used as a mobile phase. The total flow of the column was 1.0 mL/min, injection volume 30 μL, column temperature 30 °C and sample temperature 10°C. The detection wavelength of 210 nm was chosen. The KI methanolic solution was used for the dead time (tD) determination. Retention times (tR) were measured in minutes. The capacity factors k were calculated using the Empower™ 2 Chromatography Data Software according to formula k = (tR - tD)/tD, where tR is the retention time of the solute, whereas tD denotes the dead time obtained using an unretained analyte. Log k, calculated from the capacity factor k, is used as the lipophilicity index converted to log P scale.

Details of data set [5]: method as in PMID 1151976. The conditions noted are these: parameter of the substituents in the anilide part; cited from earlier work.
A short description of data set [6]: Solubility in the PET testing medium (observation). The conditions noted are these: precipitation during the experiments. Type of data set: physicochemical. The text has this: The activity of the rest of the studied compounds was moderate or low relative to the standard. PET inhibition by 8 or 9 could not be determined due to precipitation of the compounds during the experiments. With respect to these small but closed specifically substituted groups of compounds some structure-activity relationships (SAR) can be proposed.

The subject of data set [7] is Mycobacterium avium complex CIT19/06. Nature of the data set: In vitro anti-mycobacterial evaluation, alamarBlue. The conditions noted are these: 5 days, NA = no significant activity.
Protocol: (§2) Clinical isolates of Mycobacterium avium complex CIT19/06 (MAC), M. avium paratuberculosis ATCC19698 (MAP), and M. kansasii CIT11/06 (MK) were grown in Middlebrook broth (MB), supplemented with Oleic, Albumin, Dextrose, Catalase supplement (OADC, Becton Dickinson, UK). […] At log phase growth, culture (10 mL) was centrifuged at 15,000 rpm/20 min using a bench top centrifuge (Model CR 4-12 Jouan Inc., UK). Following removal of the supernatant, the pellet was washed in fresh Middlebrook 7H9GC broth and re-suspended in fresh supplemented MB (10 mL). The turbidity was adjusted to match McFarland standard No. 1 (3 × 10^8 cfu) with MB broth. A further 1:20 dilution of the culture was then performed in MB broth.
(§3) The anti-microbial susceptibility of all three mycobacterial species was investigated in a 96-well plate format. […] Each evaluated compound (100 µL) was incubated with each of the mycobacterial species (100 µL). […] Following incubation, a 10% addition of alamarBlue (AbD Serotec) was mixed into each well and readings at 570 nm and 600 nm were taken, initially for background subtraction and subsequently after 24 h re-incubation. […] For non-interfering compounds, a blue colour in the well was interpreted as an absence of growth and a pink colour was scored as growth. […]
In data set [8] the test system is M. avium paratuberculosis ATCC19698. Nature of the data set: In vitro anti-mycobacterial evaluation, alamarBlue. The conditions noted are these: 7 days, NA = no significant activity. Type of data set: cell-based. For orientation: Alamar Blue is a resazurin reagent that responds to reducing activity.
The next data set concerns M. kansasii CIT11/06. Nature of the data set: In vitro anti-mycobacterial evaluation, alamarBlue. The conditions noted are these: 5 days, NA = no significant activity.
Data set [9] has as its system Staphylococcus epidermidis H 6966/08. Nature of the data set: In vitro anti-bacterial susceptibility, Mueller-Hinton broth. The conditions noted are these: MIC = IC90 value, NA = no significant activity. Type of data set: cell-based.
In data set [10] the test system is methicilin resistant Staphylococcus aureus H 5996/08. The data set is described as above. Type of data set: cell-based. The conditions noted are these: MRSA, methicillin-resistant Staphylococcus aureus, MIC = IC90 value, NA = no significant activity.
The next data set has as its system Absidia corymbifera 272. Nature of the data set: In vitro anti-fungal susceptibility, broth microdilution. Type of data set: cell-based. How it is done:
(§1) The broth microdilution test was used for the assessment of in vitro anti-fungal activity of the synthesized compounds against Absidia corymbifera 272 (AC) and Trichophyton mentagrophytes 445 (TM). Fluconazole (FLU) was used as the standard since it is a clinically used anti-mycotic drug. The procedure was performed with a two-fold dilution of the compounds in […]., Prague, Czech Republic) buffered to pH 7.0 with 0.165 mol of 3-morpholino-propane-1-sulfonic acid (MOPS, Sigma, Germany). […] Drug-free controls were included. […] The values of the minimum inhibitory concentration (MICs) were determined after 24 and 48 h of static incubation at 35 °C. For T. mentagrophytes, the final MICs were determined after 72 and 120 h of incubation.
For orientation: In broth dilution the organism is exposed to a series of concentrations in liquid medium.

Data set [11] relates to Trichophyton mentagrophytes 445. The data set is described as above. Type of data set: cell-based. The conditions noted are these: MIC = IC50 value, NA = no significant activity. The procedure:
as §1

The structures appear in SMILES notation. ≈ marks a conversion by molar mass, not a printed value. Like-named read-outs stand apart in the source and are kept apart here. Where only a bound is given, the exact number is not on record here.

Protocol for M. kansasii CIT11/06: as §2, §3

As for `CC(=O)N(O)CCCCCNC(=O)CCC(=O)N(O)CCCCCNC(=O)CCC(=O)N(O)CCCCCN` [DFO, desferrioxamine], the half-maximal inhibitory concentration (IC50) (usually the concentration at which inhibition is half-maximal) in data set [1] (Homo sapiens) was determined as 17100 ± 3770 nM.

Regarding `CN(C)C(=S)NN=C(c1ccccn1)c1ccccn1` [Dp44mT, di-2-pyridylketone 4,4-dimethyl-3-thiosemicarbazone], the half-inhibitory concentration (IC50) in [1] came to 10 ± 10 nM.

Regarding `COC(=O)Nc1ccc(C(=O)NCc2ccccc2Cl)cc1` [Compound 13, Methyl 4-(2-chlorobenzylcarbamoyl)phenylcarbamate], the midpoint of inhibition in data set [2], the IC50, lay at 1600 nM. The “restoration of PET through PS 1 after addition of DCPIPH2” value in [3] (DCPIPH2 40 μmol/L added to treated chloroplasts) is listed as “completely restored”. In addition, the “restoration of PET through PS 2 after addition of DPC” value in data set [3] (DPC 2 mmol/L added to treated chloroplasts) was “not restored”. Further, the log k in [4] is 0.6345. In addition, in [5], the “MR (bulk parameter, reflecting bulkiness)” value (“MR” for short) is given as 4.7 and the “σ (Hammett's parameter)” value was 0.67.

With `O=C(Nc1ccccc1Cl)c1ccc([N+](=O)[O-])cc1` [Compound 8, N-(2-Chlorophenyl)-4-nitrobenzamide], the log k in [4] is 0.6782. Moreover, in data set [6], the “solubility in the testing medium” value is “low solubility”. Besides, in data set [5], the “MR” value is reported as 4.7 and the “σ (Hammett's parameter)” value is 0.67.

On to `NNC(=O)c1ccncc1` [INH, Isoniazid, reference compound], for which, in data set [7], the “MIC/IC90 MAC” value is less than 10 µg/mL. The “MIC/IC90 MAP” value in data set [8] is recorded as greater than 250 µg/mL. Moreover, the “MIC/IC90 MK” value against M. kansasii CIT11/06 is less than 10 µg/mL.

With `Cc1ccccc1NC(=O)c1ccccc1O` [Compound 1, 2-Hydroxy-N-(2-methylphenyl)benzamide], in [7], the “MIC/IC90 MAC” value is given as 250 µg/mL (≈ 1100 µM). In addition, in data set [8], the “MIC/IC90 MAP” value came out at 250 µg/mL (≈ 1100 µM). The midpoint of inhibition in data set [2], the IC50, lay at 2700 nM. In addition, the minimum inhibitory concentration (MIC) (commonly the smallest concentration in the dilution series that meets the test's criterion for growth inhibition) in data set [9] (H6966/08, 24 h, read-out: MIC SE 24 h) is 125 µM (≈ 28.4 µg/mL); in data set [9] (H6966/08, 48 h, read-out: MIC SE 48 h), 250 µM (≈ 56.8 µg/mL); in data set [10] (24 h, read-out: MIC MRSA 24 h), 125 µM (≈ 28.4 µg/mL); in data set [10] (48 h, read-out: MIC MRSA 48 h) it was 250 µM (≈ 56.8 µg/mL); in the data set on Absidia corymbifera 272 (Lichtheimia corymbifera, 272, 24 h, read-out: MIC AC 24 h), 62.5 µM (≈ 14.2 µg/mL); in the data set with Absidia corymbifera 272 (Lichtheimia corymbifera, 272, 48 h, read-out: MIC AC 48 h), 250 µM (≈ 56.8 µg/mL). Moreover, the minimal inhibitory concentration (MIC) in [11] (72 h, read-out: MIC TM 72 h) was determined as 62.5 µM (≈ 14.2 µg/mL); in [11] (120 h, read-out: MIC TM 120 h), 125 µM (≈ 28.4 µg/mL). This molecule came in with a log k in data set [4] of 0.6661. Besides, the “MIC/IC90 MK” value with M. kansasii CIT11/06 is 125 µg/mL (≈ 550 µM). For the same molecule, the “MR” value in [5] is 4.7. Moreover, the “σ (Hammett's parameter)” value in data set [5] is on record as 0.10.

In data set [4], `O=C(NCc1ccccc1Cl)c1ccc([N+](=O)[O-])cc1` [Compound 9, N-(2-Chlorobenzyl)-4-nitrobenzamide] came in with a log k of 0.6966. In data set [6], the “solubility in the testing medium” value is “low solubility”. Further, in data set [5], the “MR” value is recorded as 4.7 and the “σ (Hammett's parameter)” value is reported as 0.67.
